From US9572862B2, “Methods for promoting lipolysis and oxidation in liver and adipose tissue using catestatin” (The Regents of the University of California, priority 2012, dated 2017)
Entries after “also recorded” stand apart in the source; their conditions may differ. No end group written: not given here.

How the values were obtained:
[1] = test system: Chga-KO mice; experiment: Chronic CST administration to Chga-KO mice: adiposity, plasma lipids, leptin; format: in vivo
Method: FIG. 1. Plasma parameters of wild-type (WT) and Chga-KO mice treated with saline or CST. (A) Plasma CST from saline or CST (5 μg/g BW, i.p./day) treated WT mice (28 week old) on normal chow (NCD) and high fat diet (60% fat for 16 weeks) as well as from Chga-KO mice (28 week old) on NCD. Body weights (B) and epididymal fat pad size normalized to body weight (C) in 28 week old WT and Chga-KO mice treated with saline or CST for 12 days. Plasma triglyceride (TG) (D), glycerol (E), non-esterified fatty acids (NEFA) (F), and leptin (G) in 28 week old WT and Chga-KO mice after treatment with saline or CST for 12 days. (H) Leptin in adipocyte culture media after treatment with saline or CST.
FIG. 2. Comparison of epididyaml fat pads between saline or CST-treated Chga-KO mice. Adipose tissue was compared after 12 days of treatment with saline (A) or CST (5 μg/g BW, i.p./day) (B). *indicates epididymal fat pad.
(§1) Adult male (7 month old) WT (31.8±1.2 g) and Chga-KO (39.2±1.5 g) mice in the mixed genetic background (129SvJ×C57BL/6) were studied. Both genotypes were generated from the original founder carrying mixed genotype (50% 129SvJ, 50% C57BL/6) and were maintained by sibling mating. Animals were kept in a 12 hr dark/light cycle and fed standard chow ad libitum. Male C57BL/6 mice, 8 week old, were fed 60% high fat diet (D12492: Research Diets, Inc., New Brunswick) for 16 weeks before using for experiments. Male leptin-deficient (C57BL/6J-Ob/Ob) mice from the Jackson Laboratory were maintained on a standard chow diet. The Institutional Animal Care and Utilization Committee approved all procedures. Chga-KO, DIO and Ob/Ob mice were treated daily with saline or CST (5 μg/g BW, i.p.; 12 days for Chga-KO mice and 16 days for DIO and Ob/Ob mice).
(§2) Mice were fasted for 12 hr prior to blood draw. Triglycerides (TG) and non-esterified fatty acids (NEFA) were assayed using kits from Wako Diagnostics (Richmond, Va.). Glycerol was assayed using a kit from Sigma (St Louis, Mo.). Media from the explant cultures and mouse serum were analysed for glycerol and NEFA as a measure of lipolysis. ELISA kits were used to determine plasma levels of leptin, adiponectin (Millipore, Billerica, Mass.) and CST (Bachem, Torrance, Calif.). For CST assay, plasma samples and reference standards were passed through mini C18 columns and the flow-through fractions were assayed. The same kits were used for measurements in culture media.

[2] = test system: AMPK and Stat3 phosphorylation; experiment: AMPK and Stat3 signaling in adipose tissue explants from Chga-KO mice; format: cell-based
Method: FIG. 6. Regulation of AMPK and Stat3 signaling by CST in adipose tissue explants. Explants from Chga-KO mice were treated with saline or CST (100 nM for 30 min) and immunoblotted for pAMPK and AMPK (A). Adipose explants from WT and Chga-KO mice were immunoblotted for pAMPK and AMPK after treatment with saline or leptin (1 μM) for 30 min (B). pAMPK and AMPK (C) and pStat3 and Stat3 (D) signaling in adipose explants from WT and Chga-KO mice after treatment for 30 min with saline, CST (100 nM), leptin (1 μM) or leptin plus CST.
Adipose tissue explants were prepared as described (42). Epididymal fat pads from 12 hr fasted WT, Chga-KO, DIO and Ob/Ob mice with or without CST treatment were collected in Kreb-Ringer-phosphate (KRP) buffer containing 10 mM Hepes and 0.5% BSA. Tissues were minced to 1-2 mm size and treated with 100 nM CST, 1 μM leptin, or saline for 30 min (for signaling analysis) or 3 hr (for lipolysis and β-oxidation assays). Explants were also treated acutely with CST, leptin, a combination, or saline. At the end, incubation media were saved for analysis of glycerol and fatty acid release. Explants were washed prior to homogenization for immunoblotting and analysis of fatty acid oxidation.
Adipose tissue explants after treatments ex vivo and tissues from mice treated in vivo were homogenized in a buffer containing phosphatase and protease inhibitors (20 mM Tris/HCl (pH 7.5), 250 mM sucrose, 2 mM EDTA, 2 mM EGTA, 2 mM Na3VO4, 10 mM NaF, 2 mM Na4P2O7, 1 mM phenylmethylsulfonyl fluoride, 20 μg/ml leupeptin, 10 μg/ml aprotinin, and 1 μM LR-microcystin) as described (38,44). Homogenates were subjected to SDS-PAGE and immunoblotted. Primary antibodies for AMPK and Stat3 were from Cell Signaling Technology (Beverly, Mass.). The chemiluminescence kit was from Pierce (Rockford, Ill.).

[3] = test system: HFD-fed WT mice; experiment: CST treatment of HFD-fed WT mice; format: in vivo
From the text: FIG. 12. Metabolic phenotypes in HFD-fed CST-KO mice. (A) CST-KO mice eat more 60% HFD than WT. (B) CST-KO mice gained more weight than WT. (C) Heightened glucose resistance at baseline in CST-KO mice compared to WT mice. […] Figures in parentheses indicate number of animals.

[4] = test system: Ob/Ob mice; experiment: CST administration to Ob/Ob mice for 16 days; format: in vivo
Method: FIG. 7. Effects of CST administration to DIO and Ob/Ob mice on food intake, body weight, adipose tissue weight, and lipolysis. CST (5 μg/g BW, i.p./day) or saline was administered to DIO and Ob/Ob mice for 16 days. Food intake for DIO mice (A) and Ob/Ob mice (B) was measured every other day. Percent changes in final body weight and WAT mass (as % of body weight) were determined for DIO (C) and Ob/Ob (D) mice. Plasma glycerol (E) and NEFA (F) were quantified for DIO and Ob/Ob mice at the end of CST treatment.
as §1, §2

[5] = test system: 3T3-L1 adipocytes; experiment: cAMP production in 3T3-L1 adipocytes; format: cell-based; details: CST 100 nM, ISO 10 μM, 10 min
[6] = test system: primary adipocytes; experiment: Lipolytic glycerol release from primary adipocytes; format: cell-based, mice
Method: as §2
Primary adipocytes were isolated from epididymal fat pads essentially as described (43). Adipose tissues from WT and Chga-KO mice were minced in Krebs-Ringer bicarbonate-Hepes (KRBH) buffer, pH 7.4, containing 10 mM bicarbonate, 30 mM Hepes, 200 nM adenosine, 2.5 mM glucose and 1% fatty-acid-free BSA, and digested for 30-40 min with Type I collagenase (10 mg/g tissue; Invitrogen, Carlsbad, Calif.) with gentle swirling in a 37° C. incubator. The digestion mixture was then filtered through a nylon strainer and centrifuged at 400×g for 1 min. The oily layer (released from broken cells) above floating fat cells was skimmed off, and fat cells were recovered from the top and washed three times with warm KRBH.

[7] = CST 5 μg/g BW i.p./day for 12 days

## SSMKLSFRARAYGFRGPGPQL [CST]
[1]
  food intake: did not increase food intake
[1]; [7]
  body weight: without affecting body weight
  epididymal fat pad size: reduced epididymal fat pad size to WT level
[1]; CST 12 days
  plasma NEFA level: increased
  plasma TG levels: decreased plasma TG levels
  plasma glycerol level: increased
  plasma leptin: lowered plasma leptin to a level below WT
[2]
  Stat3 phosphorylation, CST alone: lack of CST stimulation of Stat3 phosphorylation
[2]; CST plus leptin
  leptin's ability to stimulate the phosphorylation of AMPK: restored
  leptin's ability to stimulate the phosphorylation of Stat3: restored
[2]; acute CST 100 nM 30 min
  AMPK phosphorylation, CST alone: stimulated AMPK phosphorylation; also recorded: significantly stimulated pAMPK signaling
[3]
  basal plasma insulin level: decreased; also recorded: reduced hyperinsulinemia
  insulin sensitivity: improvement in insulin sensitivity; also recorded: sensitive to insulin
[4]; CST 5 μg/g BW i.p./day 16 days
  food intake: started to level off
[4]; CST 16 days
  adipose tissue mass: not reflected in any decrease in body weight or adipose tissue mass
  body weight: not reflected in any decrease in body weight
  plasma concentration of NEFA (lipolysis): not affected
  plasma concentration of glycerol (lipolysis): not affected
[5]
  cAMP production: not by CST
[6]; adipocytes, with isoproterenol 10 μM
  effect on the lipolytic effect of isoproterenol: potentiated
[6]; primary adipocytes, substance alone
  glycerol release (lipolysis): stimulated glycerol release
